Data on 3 molecules can be found in ChEMBL document CHEMBL5543097, “Synthesis and structure-activity relationships of novel 14-membered 2-fluoro ketolides with structural modification at the C11 position” (Eur J Med Chem, 2024).

Usually CC50 stands for the concentration at which the toxic effect on the cells reaches its halfway point.

Series [1] has as its system Staphylococcus epidermidis. As to the kind of experiment: Antibacterial activity against erythromycin-resistant Staphylococcus epidermidis 19-4 assessed as inhibition of visible bacterial growth incubated for 18 hrs by broth microdilution method. The format is functional. Background: Dilution methods test growth across graded concentrations, often in twofold steps.
In series [2] the test system is Streptococcus pyogenes. The experiment in a line: Antibacterial activity against erythromycin-resistant Streptococcus pyogenes ATCC 19615 assessed as inhibition of visible bacterial growth incubated for 18 hrs by broth microdilution method. The format is functional.
Series [3] deals with Staphylococcus epidermidis. As to the kind of experiment: Potency index, ratio of telithromycin MIC to test compound MIC for antibacterial activity against erythromycin-resistant Staphylococcus epidermidis 19-8 assessed as inhibition of visible bacterial growth incubated for 18 hrs by broth microdilution method. The series is classed as functional.
Series [4] relates to Staphylococcus epidermidis. The experiment in a line: Potency index, ratio of telithromycin MIC to test compound MIC for antibacterial activity against erythromycin-resistant Staphylococcus epidermidis 19-11 assessed as inhibition of visible bacterial growth incubated for 18 hrs by broth microdilution method. The format is functional.
Series [5] relates to Staphylococcus epidermidis. The experiment in a line: Antibacterial activity against erythromycin-resistant Staphylococcus epidermidis 19-9 assessed as inhibition of visible bacterial growth incubated for 18 hrs by broth microdilution method. The series is classed as functional.
The subject of series [6] is Moraxella catarrhalis. The experiment in a line: Antibacterial activity against Moraxella catarrhalis BCA 19-31 assessed as inhibition of bacterial growth incubated for 24 hrs by CLSI based broth microdilution method. The format is functional. Particulars: BCA 19-31, 24 h.
Series [7] has as its system Escherichia coli. The experiment in a line: Antibacterial activity against Escherichia coli ATCC 35218 assessed as inhibition of visible bacterial growth. The format is functional, organism-based.
Series [8] deals with Staphylococcus epidermidis. The experiment in a line: Potency index, ratio of telithromycin MIC to test compound MIC for antibacterial activity against erythromycin-resistant Staphylococcus epidermidis 19-6 assessed as inhibition of visible bacterial growth incubated for 18 hrs by broth microdilution method. The format is functional.
Series [9] has as its system Staphylococcus epidermidis. As to the kind of experiment: Antibacterial activity against erythromycin-resistant Staphylococcus epidermidis 19-5 assessed as inhibition of visible bacterial growth incubated for 18 hrs by broth microdilution method. The series is classed as functional.
In series [10] the test system is Staphylococcus epidermidis. The experiment in a line: Antibacterial activity against erythromycin-resistant Staphylococcus epidermidis 19-8 assessed as inhibition of visible bacterial growth incubated for 18 hrs by broth microdilution method. The series is classed as functional.
Series [11] relates to Moraxella catarrhalis. As to the kind of experiment: Antibacterial activity against Moraxella catarrhalis BCA 19-5 assessed as inhibition of bacterial growth incubated for 24 hrs by CLSI based broth microdilution method. The series is classed as functional. Conditions: Moraxella catarrhalis, BCA 19-5, 24 h, read-out: MIC.
Series [12] deals with Enterococcus faecium. The experiment in a line: Antibacterial activity against vancomycin-resistant Enterococcus faecium assessed as inhibition of visible bacterial growth. The series is classed as functional.
Series [13] relates to Streptococcus pneumoniae. As to the kind of experiment: Potency index, ratio of telithromycin MIC to test compound MIC for antibacterial activity against Streptococcus pneumoniae SPN19-14 assessed as inhibition of visible bacterial growth incubated for 18 hrs by broth microdilution method. The series is classed as functional.
The subject of series [14] is Haemophilus influenzae. The experiment in a line: Antibacterial activity against Haemophilus influenzae HIN 19-15 assessed as inhibition of bacterial growth incubated for 20 to 24 hrs by CLSI based broth microdilution method. Particulars: time 20-24 hrs. The series is classed as functional.
The subject of series [15] is Staphylococcus epidermidis. As to the kind of experiment: Potency index, ratio of telithromycin MIC to test compound MIC for antibacterial activity against erythromycin-resistant Staphylococcus epidermidis 19-4 assessed as inhibition of visible bacterial growth incubated for 18 hrs by broth microdilution method. The format is functional.
The subject of series [16] is Streptococcus pneumoniae. The experiment in a line: Potency index, ratio of telithromycin MIC to test compound MIC for antibacterial activity against Streptococcus pneumoniae SPN19-8 assessed as inhibition of visible bacterial growth incubated for 18 hrs by broth microdilution method. The format is functional.
The test system of series [17] is Staphylococcus epidermidis. The experiment in a line: Antibacterial activity against erythromycin-resistant Staphylococcus epidermidis 19-11 assessed as inhibition of visible bacterial growth incubated for 18 hrs by broth microdilution method. The format is functional.
Series [18] relates to Streptococcus pneumoniae. The experiment in a line: Antibacterial activity against erythromycin-resistant Streptococcus pneumoniae SPN19-14 assessed as inhibition of visible bacterial growth incubated for 18 hrs by broth microdilution method. The series is classed as functional.
Series [19] is described as follows: Cytotoxicity against mouse AML12 cells assessed as reduction in cell viability incubated for 48 hrs by MTT assay. The series is classed as toxicity, cell-based. (In general: Formazan colour is commonly taken as a measure of viable cells.)
The subject of series [20] is Streptococcus pneumoniae. As to the kind of experiment: Antibacterial activity against erythromycin-resistant Streptococcus pneumoniae SPN19-13 assessed as inhibition of visible bacterial growth incubated for 18 hrs by broth microdilution method. The format is functional.
The test system of series [21] is Staphylococcus epidermidis. The experiment in a line: Antibacterial activity against erythromycin-resistant Staphylococcus epidermidis 19-6 assessed as inhibition of visible bacterial growth incubated for 18 hrs by broth microdilution method. The format is functional.
For series [22], the system named is Staphylococcus epidermidis. The experiment in a line: Potency index, ratio of telithromycin MIC to test compound MIC for antibacterial activity against erythromycin-resistant Staphylococcus epidermidis 19-9 assessed as inhibition of visible bacterial growth incubated for 18 hrs by broth microdilution method. The format is functional.
The test system of series [23] is Streptococcus agalactiae. As to the kind of experiment: Antibacterial activity against erythromycin-resistant Streptococcus agalactiae 19-8 assessed as inhibition of visible bacterial growth incubated for 18 hrs by broth microdilution method. The series is classed as functional.
Series [24] relates to Streptococcus pneumoniae. The experiment in a line: Antibacterial activity against erythromycin-resistant Streptococcus pneumoniae SPN19-8 assessed as inhibition of visible bacterial growth incubated for 18 hrs by broth microdilution method. The series is classed as functional.
Series [25] relates to Moraxella catarrhalis. As to the kind of experiment: Antibacterial activity against Moraxella catarrhalis BCA 19-6 assessed as inhibition of bacterial growth incubated for 24 hrs by CLSI based broth microdilution method. Conditions: Moraxella catarrhalis, BCA 19-6, 24 h, read-out: MIC. The format is functional.
Series [26] concerns Streptococcus pneumoniae. The experiment in a line: Potency index, ratio of telithromycin MIC to test compound MIC for antibacterial activity against Streptococcus pneumoniae SPN19-13 assessed as inhibition of visible bacterial growth incubated for 18 hrs by broth microdilution method. The format is functional.
Series [27] deals with Haemophilus influenzae. The experiment in a line: Antibacterial activity against Haemophilus influenzae HIN 19-18 assessed as inhibition of bacterial growth incubated for 20 to 24 hrs by CLSI based broth microdilution method. The format is functional. Conditions: HIN 19-18, time 20-24 hrs.
Series [28] deals with Staphylococcus epidermidis. The experiment in a line: Potency index, ratio of telithromycin MIC to test compound MIC for antibacterial activity against erythromycin-resistant Staphylococcus epidermidis 19-5 assessed as inhibition of visible bacterial growth incubated for 18 hrs by broth microdilution method. The series is classed as functional.
The subject of series [29] is Streptococcus agalactiae. The experiment in a line: Antibacterial activity against erythromycin-resistant Streptococcus agalactiae 19-9 assessed as inhibition of visible bacterial growth incubated for 18 hrs by broth microdilution method. The series is classed as functional.
Series [30] has as its system Staphylococcus aureus. As to the kind of experiment: Antibacterial activity against Staphylococcus aureus ATCC 700699 assessed as inhibition of visible bacterial growth. The format is functional.
Series [31] has as its system Haemophilus influenzae. The experiment in a line: Antibacterial activity against Haemophilus influenzae HIN 20-18 assessed as inhibition of bacterial growth incubated for 20 to 24 hrs by CLSI based broth microdilution method. Particulars: time 20-24 hrs. The format is functional.

Each structure is given as a SMILES string. ≈ marks a conversion by molar mass, not a printed value. Calls of active or inactive are those of the source. The rule behind the calls is not given here. Some results are limits rather than exact numbers.

Take `CC[C@H]1OC(=O)[C@@](C)(F)C(=O)[C@H](C)[C@@H](O[C@@H]2O[C@H](C)C[C@H](N(C)C)[C@H]2O)[C@](C)(OC)C[C@@H](C)C(=O)[C@H](C)[C@H]2N(CCCOC(=O)Nc3cccc4ccccc34)C(=O)O[C@]12C`: the MIC in series [1] is under 0.03 µg/mL; in series [2], under 0.03 µg/mL; in series [5] it was 0.125 µg/mL (≈ 0.146 µM); in series [6] it was under 0.03 µg/mL; in series [9], under 0.03 µg/mL; in series [10], under 0.03 µg/mL. In addition, the MIC in series [11] was under 0.03 µg/mL; in series [12], 16 µg/mL (≈ 18.6 µM); in [14], 4 µg/mL (≈ 4.66 µM); in [17], under 0.03 µg/mL; in series [18], under 0.03 µg/mL; in series [20], under 0.03 µg/mL. In addition, the MIC in series [21] is under 0.03 µg/mL; in series [23] it was under 0.03 µg/mL; in [24], under 0.03 µg/mL; in [25], under 0.03 µg/mL; in [27] it was 4 µg/mL (≈ 4.66 µM); in [29], under 0.03 µg/mL. For the same molecule, the Ratio is 4 in [3]; 4 in series [4]; 4 in series [8]; under 4 in [13]; 4 in series [15]; under 4 in series [16]. Besides, the values for the Ratio in series [22], in series [26] and in series [28] were 4, under 4 and 4, respectively. Also, the result in series [7] was Active. Besides, the CC50 at 48 h in [19] came to 29.4 µM.

As to `CCOc1ccccc1NC(=O)OCCCN1C(=O)O[C@]2(C)[C@@H](CC)OC(=O)[C@@](C)(F)C(=O)[C@H](C)[C@@H](O[C@@H]3O[C@H](C)C[C@H](N(C)C)[C@H]3O)[C@](C)(OC)C[C@@H](C)C(=O)[C@H](C)[C@@H]12`, the MIC in series [1] is 0.06 µg/mL (≈ 0.0704 µM); in series [2], under 0.03 µg/mL; in series [5], 0.5 µg/mL (≈ 0.587 µM); in series [6], 0.03 µg/mL (≈ 0.0352 µM); in series [30], 16 µg/mL (≈ 18.8 µM); in [9], under 0.03 µg/mL. Moreover, the MIC in series [10] was 0.06 µg/mL (≈ 0.0704 µM); in series [11], 0.125 µg/mL (≈ 0.147 µM); in series [14] it was 4 µg/mL (≈ 4.69 µM); in [31], 8 µg/mL (≈ 9.39 µM); in [17] it was 0.16 µg/mL (≈ 0.188 µM); in series [18], 0.06 µg/mL (≈ 0.0704 µM). Besides, the MIC in [20] turned out to be 0.06 µg/mL (≈ 0.0704 µM); in [21] it was 0.125 µg/mL (≈ 0.147 µM); in series [24], 0.125 µg/mL (≈ 0.147 µM); in [25], 0.125 µg/mL (≈ 0.147 µM); in [27] it was 2 µg/mL (≈ 2.35 µM); in series [29], 0.25 µg/mL (≈ 0.293 µM). In addition, the CC50 at 48 h in series [19] was over 100 µM.

As for `CC[C@H]1OC(=O)[C@@](C)(F)C(=O)[C@H](C)[C@@H](O[C@@H]2O[C@H](C)C[C@H](N(C)C)[C@H]2O)[C@](C)(OC)C[C@@H](C)C(=O)[C@H](C)[C@H]2N(CCCOC(=O)Nc3ccc(C(F)(F)F)cc3)C(=O)O[C@]12C`, the MIC is 0.03 µg/mL (≈ 0.0342 µM) in series [1]; under 0.03 µg/mL in [2]; 0.25 µg/mL (≈ 0.285 µM) in [5]; 0.06 µg/mL (≈ 0.0685 µM) in series [6]; 16 µg/mL (≈ 18.3 µM) in series [30]; under 0.03 µg/mL in [9]. Moreover, the MIC in series [10] is 0.06 µg/mL (≈ 0.0685 µM); in series [11], 0.125 µg/mL (≈ 0.143 µM); in series [12], 16 µg/mL (≈ 18.3 µM); in series [14] it was 4 µg/mL (≈ 4.57 µM); in [17], under 0.03 µg/mL; in series [18], 0.125 µg/mL (≈ 0.143 µM). For the same molecule, the MIC worked out at 0.125 µg/mL (≈ 0.143 µM) in [20]; 0.125 µg/mL (≈ 0.143 µM) in [21]; 0.125 µg/mL (≈ 0.143 µM) in series [24]; 0.125 µg/mL (≈ 0.143 µM) in series [25]; 1 µg/mL (≈ 1.14 µM) in series [29]. Moreover, in series [19], the CC50 at 48 h is 19.6 µM.
